Legend:
HMEC cells = experiment: MTT assay on HMEC cells; format: cell-based; conditions: similar MTT assay on HMEC cells
Procedure: (§1) HCT116 cells (2000/well) are plated into 96-well tissue culture plates one day before compound treatment. Representative compounds at various concentrations were added to the cells. The cells are incubated for 72 hours at 37° C. in 5% CO2 incubator. MTT (3-[4,5-dimethylthiazol-2-yl]-2,5 diphenyl tetrazolium bromide, Sigma) is added at a final concentration of 0.5 mg/ml and incubated with the cells for 4 hours before one volume of solubilization buffer (50% N,N-dimethylformamide, 20% SDS, pH 4.7) is added onto the cultured cells. After overnight incubation, solubilized dye is quantified by calorimetric reading at 570 nM using a reference at 630 nM. OD values are converted to cell numbers according to a standard growth curve of the relevant cell line. The concentration which reduces cell numbers to 50% of that of solvent treated cells is determined as MTT IC50. A similar assay is performed on HMEC cells.

HCT116 cells = experiment: MTT assay on HCT116 cells; format: cell-based; conditions: 72 hours incubation, concentration reducing cell numbers to 50% of solvent treated cells
Procedure: as §1

HDAC-1 = HDAC-1 (Homo sapiens, UniProt Q13547); experiment: Inhibition of histone deacetylase enzymatic (HDAC-1) activity, Boc-Lys(Ac)-AMC fluorescence assay; format: biochemical
Procedure: Inhibition of Histone Deacetylase Enzymatic (HDAC-1) Activity
(§2) The following protocol is used to assay the compounds of the invention. In the assay, the buffer used is 25 mM HEPES, pH 8.0, 137 mM NaCl, 2.7 mM KCl, 1 mM MgCl2 and the substrate is Boc-Lys(Ac)-AMC in a 50 mM stock solution in DMSO. The enzyme stock solution is 4.08 μg/mL in buffer.
(§3) The compounds are pre-incubated (2 μl in DMSO diluted to 13 μl in buffer for transfer to assay plate) with enzyme (20 μl of 4.08 μg/ml) for 10 minutes at room temperature (35 μl pre-incubation volume). The mixture is pre-incubated for 5 minutes at room temperature. The reaction is started by bringing the temperature to 37° C. and adding 15 μl substrate. Total reaction volume is 50 μl. The reaction is stopped after 20 minutes by addition of 50 μl developer, prepared as directed by Biomol (Fluor-de-Lys developer, Cat. # KI-105). A plate is incubated in the dark for 10 minutes at room temperature before reading (λEx=360 nm, λEm=470 nm, Cutoff filter at 435 nm). Similar assays are performed to measure HDAC-2 inhibitory activity

HDAC-2 = HDAC-2 (Homo sapiens, UniProt Q92769); experiment: Similar assay measuring HDAC-2 inhibitory activity; format: biochemical
Procedure: as §2, §3

Sequence of HDAC-1 (Q13547 whole entry): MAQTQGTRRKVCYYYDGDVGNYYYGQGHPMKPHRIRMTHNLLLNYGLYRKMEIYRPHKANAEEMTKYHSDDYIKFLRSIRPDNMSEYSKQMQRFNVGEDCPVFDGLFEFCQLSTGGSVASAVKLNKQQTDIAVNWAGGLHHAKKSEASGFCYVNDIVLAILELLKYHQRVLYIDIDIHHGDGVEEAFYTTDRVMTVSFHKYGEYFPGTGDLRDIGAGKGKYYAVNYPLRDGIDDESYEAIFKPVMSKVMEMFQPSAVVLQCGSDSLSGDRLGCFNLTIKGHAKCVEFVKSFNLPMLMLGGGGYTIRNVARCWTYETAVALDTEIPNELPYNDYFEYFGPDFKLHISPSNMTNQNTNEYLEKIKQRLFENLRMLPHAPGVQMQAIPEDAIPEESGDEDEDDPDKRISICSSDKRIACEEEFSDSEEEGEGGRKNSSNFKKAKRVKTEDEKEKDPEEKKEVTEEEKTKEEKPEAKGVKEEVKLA
Sequence of HDAC-2 (Q92769 whole entry): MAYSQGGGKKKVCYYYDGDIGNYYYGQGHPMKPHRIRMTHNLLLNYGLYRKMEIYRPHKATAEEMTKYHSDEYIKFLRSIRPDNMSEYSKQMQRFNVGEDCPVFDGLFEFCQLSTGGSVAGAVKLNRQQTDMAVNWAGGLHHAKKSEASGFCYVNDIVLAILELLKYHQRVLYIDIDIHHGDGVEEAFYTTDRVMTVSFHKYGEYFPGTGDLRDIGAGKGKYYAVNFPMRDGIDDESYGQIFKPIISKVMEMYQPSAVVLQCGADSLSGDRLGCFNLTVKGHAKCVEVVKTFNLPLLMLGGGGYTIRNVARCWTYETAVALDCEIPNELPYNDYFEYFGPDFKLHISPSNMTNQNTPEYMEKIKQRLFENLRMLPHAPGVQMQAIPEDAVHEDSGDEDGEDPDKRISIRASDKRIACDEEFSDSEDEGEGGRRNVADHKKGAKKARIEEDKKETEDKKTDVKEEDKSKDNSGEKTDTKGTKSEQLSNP

SMILES	IC50 (HMEC cells; Homo sapiens) [µM]	IC50 (HCT116 cells; Homo sapiens, HCT-116) [nM]	IC50 (HDAC-1) [nM]	IC50 (HDAC-2) [nM]	IC50 (HMEC cells) [µM]	IC50 (HCT116 cells) [nM]
Nc1ccccc1NC(=O)c1ccc(N2CC[C@H](NC(=O)N3CCOCC3)C2)cc1 [Compound 126, (S)-N-(1-(4-(2-Aminophenylcarbamoyl)phenyl)pyrrolidin-3-yl)morpholine-4-carboxamide]	> 50	≤ 1000	≤ 500	≤ 1000	–	–
CN(C)CCOC(=O)N[C@H]1CCN(c2ccc(C(=O)Nc3ccccc3N)cc2)C1 [Compound 119, (S)-2-(Dimethylamino)ethyl-1-(4-(2-aminophenylcarbamoyl) -phenyl)pyrrolidin-3-ylcarbamate]	> 50	≤ 1000	≤ 500	≤ 500	–	–
Nc1ccccc1NC(=O)c1ccc(N2CC[C@H](OC(=S)NCCN3CCOCC3)C2)cc1 [Compound 163, (S)-O-1-(4-(2-Aminophenylcarbamoyl)phenyl)pyrrolidin-3-yl 2-morpholinoethylcarbamothioate]	≤ 50	≤ 5000	≤ 500	≤ 5000	–	–
CC(C)COC(=O)N[C@H]1CCN(c2ccc(C(=O)Nc3ccccc3N)cc2)C1 [Compound 123, (S)-Isobutyl 1-(4-(2-aminophenylcarbamoyl)phenyl)pyrrolidin-3-yl carbamate]	≤ 50	≤ 500	≤ 500	≤ 5000	–	–
Nc1ccccc1NC(=O)c1ccc(N2CC[C@H](NC(=O)OCC3CC3)C2)cc1 [Compound 199, (S)-cyclopropylmethyl 1-(4-(2-aminophenylcarbamoyl)phenyl)-pyrrolidin-3-ylcarbamate]	≤ 50	≤ 500	≤ 100	≤ 500	–	–
Nc1ccccc1NC(=O)c1ccc(N2CC[C@H](NC(=O)OCc3ccccn3)C2)cc1 [Compound 143, (S)-Pyridin-2-ylmethyl 1-(4-(2-aminophenylcarbamoyl)phenyl)pyrrolidin-3-yl carbamate]	≤ 50	≤ 1000	≤ 500	≤ 500	–	–
CCOC(=O)N[C@H]1CCN(c2ccc(C(=O)Nc3ccccc3N)cc2)C1 [Compound 121, (S)-Ethyl 1-(4-(2-aminophenylcarbamoyl)phenyl)pyrrolidin-3-yl carbamate]	–	–	≤ 500	≤ 500	≤ 50	≤ 1000
CC(C)(C)OC(=O)N[C@H]1CCN(c2ccc(C(=O)Nc3ccccc3N)cc2)C1 [Compound 122, (S)-tert-Butyl 1-(4-(2-aminophenylcarbamoyl)phenyl)pyrrolidin-3-yl carbamate]	≤ 50	≤ 1000	≤ 500	≤ 500	–	–
COc1cc(CN(C(=O)OCc2ccccc2)[C@H]2CCN(c3ccc(C(=O)Nc4ccccc4N)cc3)C2)cc(OC)c1OC [Compound 197, (S)-benzyl 1-(4-(2-aminophenylcarbamoyl)phenyl)-pyrrolidin-3-yl(3,4,5-trimethoxybenzyl)carbamate]	> 50	≤ 1000	≤ 500	≤ 500	–	–
